In patent EP4260865B1, “COMPOSITION COMPRISING PLANT EXTRACTS FOR TREATING HYPERCHOLESTEROLEMIA” (Anvest Group S.r.l., priority 2022, dated 2023):

Experiments:
[1] = test system: PCSK9; assay: PCSK9 inhibition in HepG2 liver cells (mRNA levels by qRT-PCR); assay type: cell-based, human; details: 40 µM berberine or 40 µM equivalent berberine, compared to the control
Method: Immortalized HepG2 human hepatocellular carcinoma cells were cultured and then treated with berberine extract, and the composition of Example 1. After treatment, the cells were lysed and the mRNA (messenger RNA) levels for PCSK9 expression were evaluated by qRT-PCR using human-specific PCR primers. For each sample, the measurements were carried out at least in triplicate and the results were reported as the average of the single values.
The efficacy of the invention composition was tested against HepG2 immortalized human hepatocarcinoma cells. […] The inhibition of the messenger RNA (mRNA) encoding the translation of the protein PCSK9 plays a key role in the mechanisms of action aimed at maximizing the hepatic reuptake of LDL cholesterol. […]
As it is possible to see in Figure 1, the mRNA levels related to PCSK9 expression of HepG2 cells are influenced by treatment with 40 µM of berberine, showing a reduction of about 25% after 6 hours and of 40% after 24 hours, compared to the control. […] In fact, a reduction of more than 40% was recorded after 6 hours from the treatment, while at 24 hours inhibition levels equal to about 60% were detected, due to a synergistic effect also of the other components present in the mixture, capable of influencing the PCSK9-LDLR metabolic pathway.

[2] = target: T1, HMG CoA-reductase enzyme (Homo sapiens, UniProt P04035); assay: HMG-CoA reductase activity in treated human liver cells (HUCPI), NADPH oxidation; assay type: cell-based; details: administered once in the 24-hour period, Figure 4
T1 construct: First-line human liver cells (HUCPI) were cultured and treated with some compositions; endogenous in cells; host or cells: HUCPI first-line human liver cells
T1 sequence (P04035 1-888): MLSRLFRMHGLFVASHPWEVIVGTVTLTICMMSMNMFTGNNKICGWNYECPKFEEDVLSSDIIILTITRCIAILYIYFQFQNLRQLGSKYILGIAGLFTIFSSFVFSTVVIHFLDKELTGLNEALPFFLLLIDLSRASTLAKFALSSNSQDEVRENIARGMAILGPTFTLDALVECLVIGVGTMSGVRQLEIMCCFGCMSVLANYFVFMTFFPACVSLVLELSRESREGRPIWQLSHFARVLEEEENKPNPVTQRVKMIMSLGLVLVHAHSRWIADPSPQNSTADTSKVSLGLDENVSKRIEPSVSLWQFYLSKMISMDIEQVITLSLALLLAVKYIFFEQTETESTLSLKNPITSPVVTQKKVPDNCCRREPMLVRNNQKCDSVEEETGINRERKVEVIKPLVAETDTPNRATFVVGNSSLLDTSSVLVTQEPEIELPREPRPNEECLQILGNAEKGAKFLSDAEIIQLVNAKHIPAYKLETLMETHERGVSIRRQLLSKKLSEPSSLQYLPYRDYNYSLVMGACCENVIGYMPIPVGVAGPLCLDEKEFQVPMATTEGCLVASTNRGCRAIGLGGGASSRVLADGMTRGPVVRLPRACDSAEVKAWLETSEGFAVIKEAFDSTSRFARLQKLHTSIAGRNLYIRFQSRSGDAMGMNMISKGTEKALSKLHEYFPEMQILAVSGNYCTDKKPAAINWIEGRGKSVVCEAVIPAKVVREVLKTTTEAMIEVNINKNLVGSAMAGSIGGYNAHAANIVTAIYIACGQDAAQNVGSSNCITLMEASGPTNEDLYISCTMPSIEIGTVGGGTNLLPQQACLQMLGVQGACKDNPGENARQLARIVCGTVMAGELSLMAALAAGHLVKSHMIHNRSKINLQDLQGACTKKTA
Method: First-line human liver cells (HUCPI) were cultured and treated with some compositions, and with atorvastatin as a control, to evaluate the inhibition capacity of the HMG CoA-reductase enzyme. The enzymatic activity of HMG-CoA reductase was evaluated by measuring the dependent oxidation of NAPDH. For each sample, the measurements were carried out at least in triplicate, and the results were reported as the average of the single values.
The HUCPI cells were treated with the composition of Example 1 and with solutions of single extracts of Policosanols, and a mixture containing Policosanols, Oleuropein and Ipomea batata, in amounts equivalent to the ingredients of the composition of Example 1. After treatment, the cells were lysed and the catalytic fragment of the protein HMGR was cloned, overexpressed, and purified.

Row | Structure (SMILES) | reduction of mRNA levels related to PCSK9 expression ([1]; after 6 hours) | reduction of mRNA levels related to PCSK9 expression ([1]; after 24 hours) [%] | activity of HMRG [2]
1 | COc1ccc2cc3[n+](cc2c1OC)CCc1cc2c(cc1-3)OCO2 [berberine] | about 25% | 40 | –
2 | CC(C)c1c(C(=O)Nc2ccccc2)c(-c2ccccc2)c(-c2ccc(F)cc2)n1CC[C@@H](O)C[C@@H](O)CC(=O)O [atorvastatin] | – | – | significantly reduced the activity of HMRG
